Molecular target: T1, purified TXNIP (Homo sapiens, UniProt Q9H3M7)
T1 construct: purchased LSBio (TXNIP); Sigma (TRX1); host or cells: E. coli (TXNIP)
T1 sequence (Q9H3M7 1-391): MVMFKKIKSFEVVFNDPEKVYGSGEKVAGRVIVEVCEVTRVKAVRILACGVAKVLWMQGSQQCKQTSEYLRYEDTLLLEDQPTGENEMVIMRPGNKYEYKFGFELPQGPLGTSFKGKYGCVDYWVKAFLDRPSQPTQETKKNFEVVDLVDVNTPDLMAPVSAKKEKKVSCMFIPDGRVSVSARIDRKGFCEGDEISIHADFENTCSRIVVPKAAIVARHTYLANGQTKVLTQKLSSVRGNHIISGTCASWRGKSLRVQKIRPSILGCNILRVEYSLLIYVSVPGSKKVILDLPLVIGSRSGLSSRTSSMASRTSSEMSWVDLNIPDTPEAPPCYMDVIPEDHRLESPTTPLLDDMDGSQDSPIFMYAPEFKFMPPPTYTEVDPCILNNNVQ
Experiment: DARTS assay with purified TXNIP and TRX1 proteins
Format: binding
Conditions: purified TXNIP + TRX1, protease, 7 minutes (FIG. 16)
Experimental: FIG. 16. […] Purified TRX and TXNIP proteins and C1 (at the indicated concentrations) were mixed together. Protease was added. Aliquots were withdrawn at 7 minutes and loaded on 10% SDS gels. C1: compound 1; control: without protease.
To further confirm that C1 is able to protect TXNIP from proteolysis in the presence of TXNIP+TRX1, we performed DARTS assay using pure TXNIP protein (LSBio) and TRX1 protein (Sigma). The TRX1 protein we employed is also usually used for TRX1 activity assays. In contrast, the TXNIP protein is generated by E. coli and might not be in the active form. Therefore, we re-natured the protein prior to use in the DARTS assay.

## CC(C)C(C(=O)O)N1C(=O)c2ccncc2C1=O (stereo not shown) [Compound C1, 2-(1,3-dioxo-1,3-dihydro-2H-pyrrolo[3,4-c]pyridin-2-yl)-3-methylbutanoic acid]
  protection of purified TXNIP from proteolysis: protects purified TXNIP from proteolysis

— patent publication US11974990B2, “TXNIP-TRX complex inhibitors and methods of using the same” (City of Hope, priority 2018, dated 2024)
